Laboratory results as given in patent publication US5527809A, “Substituted imidazo[4,5-b]pyridines and benzimidazoles” (Bayer Aktiengesellschaft, priority 1993, dated 1996).

Columns and labels:
angiotensin II receptor = molecular target: T1, angiotensin II receptor (Bos taurus, UniProt P25104); assay: Interaction with the angiotensin II receptor in membrane fractions of the adrenal gland cortex (bovine), 3H-angiotensin II binding; conditions: bovine adrenal gland cortex membranes; 3H-angiotensin II 3-5 nM; 60 min, room temperature; read-out: IC50 (50% inhibition of the specific binding of the radioligand)
T1 construct: partially purified membrane fractions of bovine AGC; from tissue; host or cells: bovine adrenal gland cortex, partially purified membrane fractions
T1 sequence (P25104 1-359): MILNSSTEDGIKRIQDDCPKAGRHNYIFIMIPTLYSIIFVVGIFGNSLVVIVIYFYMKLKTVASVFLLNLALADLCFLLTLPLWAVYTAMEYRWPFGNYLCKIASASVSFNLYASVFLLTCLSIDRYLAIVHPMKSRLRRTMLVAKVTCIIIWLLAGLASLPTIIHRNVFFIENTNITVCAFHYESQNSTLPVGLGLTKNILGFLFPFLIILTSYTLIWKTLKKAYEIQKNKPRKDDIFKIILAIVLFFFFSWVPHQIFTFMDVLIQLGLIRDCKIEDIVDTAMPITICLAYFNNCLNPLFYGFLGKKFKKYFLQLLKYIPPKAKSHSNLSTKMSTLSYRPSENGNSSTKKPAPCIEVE
From the text: Interaction of the compounds according to the invention with the angiotensin II receptor in membrane fractions of the adrenal gland cortex (bovine)
Bovine adrenal gland cortices (AGC), which have been freshly removed and carefully freed from medulla from capsule, are comminuted in sucrose solution (0.32M) with the aid of an Ultra-Turrax (Janke & Kunkel, Staufen i.B.) to give a coarse membrane homogenate and are partially purified in two centrifugation steps to give membrane fractions. The receptor binding investigations are carried out on partially purified membrane fractions of bovine AGC using radioactive angiotensin II in an assay volume of 0.25 ml, which specifically contains the partially purified membranes (50-80 μg), ^3 H-angiotensin II (3-5 nM), test buffer solution (50 mM Tris, pH 7.2), 5 mM MgCl2 and the substances to be investigated. After an incubation time of 60 min at room temperature, the unbound radioactivity of the samples is separated by means of moistened glass fibre filters (Whatman GF/C) and the bound radioactivity is measured […] in a scintillation cocktail after washing the protein with ice-cold buffer solution (50 mM Tris/HCl, pH 7.4, 5% PEG 6000). […]

[1] = system: isolated rabbit aorta (contraction induced by angiotensin II); assay: Inhibition of the contraction induced by agonists in isolated rabbit aorta rings (angiotensin II); conditions: Oryctolagus cuniculus, based on the 3rd = submaximal agonist concentration, read-out: IC50 (50% inhibition of agonist-induced contraction)
Experimental: Investigation of the inhibition of the contraction induced by agonists
Rabbits of either sex are stunned by a blow to the back of the head and exsanguinated, or in some cases anaesthetized with Nembutal (about 60-80 mg/kg i.v.) and sacrificed by opening the thorax. The thoracic aorta is removed, freed from adhering connective tissue, divided into ring segments 1.5 mm wide and individually transferred under an initial loading of about 3.5 g to 10 ml organ baths containing Krebs-Henseleit nutrient solution, which is temperature-controlled at 37° C. and aerated with 95% 02 / 5% CO2, of the following composition: 119 mmol/l NaCl; 2.5 mmol/l CaCl2 ×2H2 O; 1.2 mmol/l KH2 PO4; 10 mmol/l glucose; 4.8 mmol/l KCl; 1.4 mmol/l MgSO4 ×7 H2 O and 25 mmol/l NaHCO3.
The contractions are detected isometrically by Statham UC2 cells by means of bridge amplifiers (ifd Mulheim or DSM Aalen) and digitalized and assessed by means of A/D converters (System 570, Keithley Munich). Agonist dose response curves (DRC) are carried out hourly. With each DRC, 3 or 4 individual concentrations are applied to the baths at a 4 min interval. After the end of the DRC and subsequent washing-out cycles (16 times in each case about 5 sec/min with the abovementioned nutrient solution), a 28-minute rest or incubation phase follows, during which the contractions as a rule reach the starting value again. […]

smooth muscle cells = assay: Inhibition of the proliferation of smooth muscle cells (3H-thymidine incorporation); assay type: cell-based; conditions: rat aorta smooth muscle cells; thymidine incorporation produced by 10% FCS; read-out: IC50 (half-maximum inhibition of thymidine incorporation)
Experimental: Investigation of the inhibition of the proliferation of smooth muscle cells by the compounds according to the invention
To determine the antiproliferation action of the compounds, smooth muscle cells are used which are obtained from aortas of rats by the media explant technique [R. Ross, J. Cell. Biol. 50, 172, 1971]. The cells are inoculated in suitable culture dishes, as a rule 96-hole plates, and cultured in 5% CO2 at 37° C. for 2-3 days in medium 199 containing 7.5% FCS and 7.5% NCS, 2 mM L-glutamine and 15 mM HEPES, pH 7.4. The cells are then synchronized by withdrawal of serum for 2-3 days and then stimulated into growth with serum or other factors. Test compounds are simultaneously added. After 16-20 hours, 1 μCi of ^3 H-thymidine is added and after a further 4 hours the incorporation of this substance into the TCA-precipitatable DNA of the cells is determined. To determine the IC50 values, the active compound concentration is calculated which, on sequential dilution of the active compound, causes half-maximum inhibition of the thymidine incorporation produced by 10% FCS.

| Structure (SMILES) | IC50 (angiotensin II receptor) [nM] | IC50 [1] [nM] | IC50 (smooth muscle cells) [nM] |
| --- | --- | --- | --- |
| Cc1cc(C)c2nc(C3CC3)n(Cc3ccc(C(C(=O)O)C(C)C)cc3)c2n1 (centres unmarked) [Example 2] | 210 | – | – |
| Cc1ccc(S(=O)(=O)NC(=O)Cc2ccc(Cn3c(C4CC4)nc4c(C)cc(C)nc43)cc2)cc1 [Example 9] | 16 | 61 | – |
| O=C(N[C@H](CO)c1ccccc1)C(c1ccc(Cn2c(-c3ccccc3)nc3cccnc32)cc1)C1CCCCCC1 (some centres unmarked) [Example 14] | – | – | 120 |
| Cc1ccnc2c1nc(-c1ccccc1)n2Cc1ccc(C(C(=O)NC(C(N)=O)c2ccccc2)C2CCCCCC2)cc1 (centres unmarked) [Example 23] | – | – | 43 |
